Reference: US12295936B2, “Immunomodulating urea azalides” (Zoetis Services LLC, priority 2020, dated 2025)

tested on: BRD pathogens, M. haemolytica and P. multocida; assay: MIC screening panel of BRD pathogens (antibacterial / non-antibacterial); conditions: read-out: antibacterial / non-antibacterial (MIC for the BRD pathogens)

Structure (SMILES)	MIC
CC[C@H]1OC(=O)[C@H](C)[C@@H](O[C@H]2C[C@@](C)(OC)[C@](O)(CN(CCN3CCOCC3)C(=O)NC3CC3)[C@H](C)O2)[C@H](C)[C@@H](O[C@@H]2O[C@H](C)C[C@H](N(C)C(=O)NC3CC3)[C@H]2O)[C@](C)(O)C[C@@H](C)CN[C@H](C)[C@@H](O)[C@]1(C)O [Example H-1, 3-cyclopropyl-1-((2S,3R,4S,6R)-2-(((2R,3S,4R,5R,8R,10R,11R,12S,13S,14R)-13-(((2R,4R,5S,6S)-5-((3-cyclopropyl-1-(2-morpholinoethyl)ureido)methyl)-5-hydroxy-4-methoxy-4,6-dimethyltetrahydro-2H-pyran-2-yl)oxy)-2-ethyl-3,4,10-trihydroxy-3,5,8,10,12,14-hexamethyl-15-oxo-1-oxa-6-azacyclopentadecan-11-yl)oxy)-3-hydroxy-6-methyltetrahydro-2H-pyran-4-yl)-1-methylurea]	> 64 µg/mL
CCCNC[C@]1(O)[C@H](C)O[C@@H](O[C@H]2[C@H](C)[C@@H](O[C@@H]3O[C@H](C)C[C@H](N(C)C(=O)NCCN(C)C)[C@H]3O)[C@](C)(O)C[C@@H](C)CN[C@H](C)[C@@H](O)[C@](C)(O)[C@@H](CC)OC(=O)[C@@H]2C)C[C@@]1(C)OC [Example H-6, 3-(2-(dimethylamino)ethyl)-1-((2S,3R,4S,6R)-2-(((2R,3S,4R,5R,8R,10R,11R,12S,13S,14R)-2-ethyl-3,4,10-trihydroxy-13-(((2R,4R,5S,6S)-5-hydroxy-4-methoxy-4,6-dimethyl-5-((propylamino)methyl)tetrahydro-2H-pyran-2-yl)oxy)-3,5,8,10,12,14-hexamethyl-15-oxo-1-oxa-6-azacyclopentadecan-11-yl)oxy)-3-hydroxy-6-methyltetrahydro-2H-pyran-4-yl)-1-methylurea]	> 64 µg/mL
CC[C@H]1OC(=O)[C@H](C)[C@@H](O)[C@H](C)[C@@H](O[C@@H]2O[C@H](C)C[C@H](N(C)C(=O)Nc3ccc(F)cc3)[C@H]2O)[C@](C)(O)C[C@@H](C)CN[C@H](C)[C@@H](O)[C@]1(C)O [Example A-18, 1-((2S,3R,4S,6R)-2-(((2R,3S,4R,5R,8R,10R,11R,12S,13S,14R)-2-ethyl-3,4,10,13-tetrahydroxy-3,5,8,10,12,14-hexamethyl-15-oxo-1-oxa-6-azacyclopentadecan-11-yl)oxy)-3-hydroxy-6-methyltetrahydro-2H-pyran-4-yl)-3-(4-fluorophenyl)-1-methylurea]	> 64 µg/mL
CC[C@H]1OC(=O)[C@H](C)[C@@H](O[C@H]2C[C@@](C)(OC)[C@](O)(CN(C)C)[C@H](C)O2)[C@H](C)[C@@H](O[C@@H]2O[C@H](C)C[C@H](N(C)C(=O)Nc3ccccc3)[C@H]2O)[C@](C)(O)C[C@@H](C)CN[C@H](C)[C@@H](O)[C@]1(C)O [Example H-2, 1-((2S,3R,4S,6R)-2-(((2R,3S,4R,5R,8R,10R,11R,12S,13S,14R)-13-(((2R,4R,5S,6S)-5-((dimethylamino)methyl)-5-hydroxy-4-methoxy-4,6-dimethyltetrahydro-2H-pyran-2-yl)oxy)-2-ethyl-3,4,10-trihydroxy-3,5,8,10,12,14-hexamethyl-15-oxo-1-oxa-6-azacyclopentadecan-11-yl)oxy)-3-hydroxy-6-methyltetrahydro-2H-pyran-4-yl)-1-methyl-3-phenylurea]	> 64 µg/mL
CCCNC[C@]1(O)[C@H](C)O[C@@H](O[C@H]2[C@H](C)[C@@H](O[C@@H]3O[C@H](C)C[C@H](N(C)C(=O)N(C)c4ccccc4)[C@H]3O)[C@](C)(O)C[C@@H](C)CN(C)[C@H](C)[C@@H](O)[C@](C)(O)[C@@H](CC)OC(=O)[C@@H]2C)C[C@@]1(C)OC [Example H-101, 1-((2S,3R,4S,6R)-2-(((2R,3S,4R,5R,8R,10R,11R,12S,13S,14R)-2-ethyl-3,4,10-trihydroxy-13-(((2R,4R,5S,6S)-5-hydroxy-4-methoxy-4,6-dimethyl-5-((propylamino)methyl)tetrahydro-2H-pyran-2-yl)oxy)-3,5,6,8,10,12,14-heptamethyl-15-oxo-1-oxa-6-azacyclopentadecan-11-yl)oxy)-3-hydroxy-6-methyltetrahydro-2H-pyran-4-yl)-1,3-dimethyl-3-phenylurea]	> 64 µg/mL
CC[C@H]1OC(=O)[C@H](C)[C@@H](O)[C@H](C)[C@@H](O[C@@H]2O[C@H](C)C[C@H](N(C)C(=O)Nc3ccccc3C)[C@H]2O)[C@](C)(O)C[C@@H](C)CN[C@H](C)[C@@H](O)[C@]1(C)O [Example A-14, 1-((2S,3R,4S,6R)-2-(((2R,3S,4R,5R,8R,10R,11R,12S,13S,14R)-2-ethyl-3,4,10,13-tetrahydroxy-3,5,8,10,12,14-hexamethyl-15-oxo-1-oxa-6-azacyclopentadecan-11-yl)oxy)-3-hydroxy-6-methyltetrahydro-2H-pyran-4-yl)-1-methyl-3-(o-tolyl)urea]	> 64 µg/mL
CCCN1C[C@H](C)C[C@@](C)(O)[C@H](O[C@@H]2O[C@H](C)C[C@H](N(C)C(=O)N(C)c3ccc(C(F)(F)F)cc3)[C@H]2O)[C@@H](C)[C@H](O[C@H]2C[C@@](C)(OC)[C@@H](O)[C@H](C)O2)[C@@H](C)C(=O)O[C@H](CC)[C@@](C)(O)[C@H](O)[C@H]1C [Example B-14, 1-((2S,3R,4S,6R)-2-(((2R,3S,4R,5R,8R,10R,11R,12S,13S,14R)-2-ethyl-3,4,10-trihydroxy-13-(((2R,4R,5S,6S)-5-hydroxy-4-methoxy-4,6-dimethyltetrahydro-2H-pyran-2-yl)oxy)-3,5,8,10,12,14-hexamethyl-15-oxo-6-propyl-1-oxa-6-azacyclopentadecan-11-yl)oxy)-3-hydroxy-6-methyltetrahydro-2H-pyran-4-yl)-1,3-dimethyl-3-(4-(trifluoromethyl)phenyl)urea]	> 64 µg/mL
CC[C@H]1OC(=O)[C@H](C)[C@@H](O)[C@H](C)[C@@H](O[C@@H]2O[C@H](C)C[C@H](N(C)C(=O)Nc3cccc(Cl)c3)[C@H]2O)[C@](C)(O)C[C@@H](C)CN[C@H](C)[C@@H](O)[C@]1(C)O [Example A-23, 3-(3-chlorophenyl)-1-((2S,3R,4S,6R)-2-(((2R,3S,4R,5R,8R,10R,11R,12S,13S,14R)-2-ethyl-3,4,10,13-tetrahydroxy-3,5,8,10,12,14-hexamethyl-15-oxo-1-oxa-6-azacyclopentadecan-11-yl)oxy)-3-hydroxy-6-methyltetrahydro-2H-pyran-4-yl)-1-methylurea]	> 64 µg/mL
CCCNC(=O)N(C)[C@H]1C[C@@H](C)O[C@@H](O[C@@H]2[C@@H](C)[C@H](O[C@H]3C[C@@](C)(OC)[C@](O)(CNC4CC4)[C@H](C)O3)[C@@H](C)C(=O)O[C@H](CC)[C@@](C)(O)[C@H](O)[C@@H](C)NC[C@H](C)C[C@@]2(C)O)[C@@H]1O [Example H-93, 1-((2S,3R,4S,6R)-2-(((2R,3S,4R,5R,8R,10R,11R,12S,13S,14R)-13-(((2R,4R,5S,6S)-5-((cyclopropylamino)methyl)-5-hydroxy-4-methoxy-4,6-dimethyltetrahydro-2H-pyran-2-yl)oxy)-2-ethyl-3,4,10-trihydroxy-3,5,8,10,12,14-hexamethyl-15-oxo-1-oxa-6-azacyclopentadecan-11-yl)oxy)-3-hydroxy-6-methyltetrahydro-2H-pyran-4-yl)-1-methyl-3-propylurea]	> 64 µg/mL
CC[C@H]1OC(=O)[C@H](C)[C@@H](O[C@H]2C[C@@](C)(OC)[C@](O)(CNC)[C@H](C)O2)[C@H](C)[C@@H](O[C@@H]2O[C@H](C)C[C@H](N(C)C(=O)N3CCN(CC)CC3)[C@H]2O)[C@](C)(O)C[C@@H](C)CN[C@H](C)[C@@H](O)[C@]1(C)O [Example I-1, 4-ethyl-N-((2S,3R,4S,6R)-2-(((2R,3S,4R,5R,8R,10R,11R,12S,13S,14R)-2-ethyl-3,4,10-trihydroxy-13-(((2R,4R,5S,6S)-5-hydroxy-4-methoxy-4,6-dimethyl-5-((methylamino)methyl)tetrahydro-2H-pyran-2-yl)oxy)-3,5,8,10,12,14-hexamethyl-15-oxo-1-oxa-6-azacyclopentadecan-11-yl)oxy)-3-hydroxy-6-methyltetrahydro-2H-pyran-4-yl)-N-methylpiperazine-1-carboxamide]	> 64 µg/mL
CC[C@H]1OC(=O)[C@H](C)[C@@H](O[C@H]2C[C@@](C)(OC)[C@](O)(CN(CC)CC)[C@H](C)O2)[C@H](C)[C@@H](O[C@@H]2O[C@H](C)C[C@H](N(C)C(=O)Nc3ccccc3)[C@H]2O)[C@](C)(O)C[C@@H](C)CN[C@H](C)[C@@H](O)[C@]1(C)O [Example H-4, 1-((2S,3R,4S,6R)-2-(((2R,3S,4R,5R,8R,10R,11R,12S,13S,14R)-13-(((2R,4R,5S,6S)-5-((diethylamino)methyl)-5-hydroxy-4-methoxy-4,6-dimethyltetrahydro-2H-pyran-2-yl)oxy)-2-ethyl-3,4,10-trihydroxy-3,5,8,10,12,14-hexamethyl-15-oxo-1-oxa-6-azacyclopentadecan-11-yl)oxy)-3-hydroxy-6-methyltetrahydro-2H-pyran-4-yl)-1-methyl-3-phenylurea]	> 64 µg/mL
CC[C@H]1OC(=O)[C@H](C)[C@@H](O[C@H]2C[C@@](C)(OC)[C@](O)(CC#N)[C@H](C)O2)[C@H](C)[C@@H](O[C@@H]2O[C@H](C)C[C@H](N(C)C(=O)Nc3ccccc3)[C@H]2O)[C@](C)(O)C[C@@H](C)CN[C@H](C)[C@@H](O)[C@]1(C)O [Example G-1, 1-((2S,3R,4S,6R)-2-(((2R,3S,4R,5R,8R,10R,11R,12S,13S,14R)-13-(((2R,4R,5S,6S)-5-(cyanomethyl)-5-hydroxy-4-methoxy-4,6-dimethyltetrahydro-2H-pyran-2-yl)oxy)-2-ethyl-3,4,10-trihydroxy-3,5,8,10,12,14-hexamethyl-15-oxo-1-oxa-6-azacyclopentadecan-11-yl)oxy)-3-hydroxy-6-methyltetrahydro-2H-pyran-4-yl)-1-methyl-3-phenylurea]	> 64 µg/mL
